From US20230285498A1, “TREATMENTS FOR CANCERS HAVING KRAS MUTATIONS” (City of Hope, priority 2020, published 2023) come the findings set out here.

Where two headings read alike, the source gives them in different places. A value given as a limit tells only on which side of the number the result lay.

For assay [1], the system named is SW1573. Description: Drug combination synergy assay (inhibition matrix). Type of assay: cell-based. The conditions noted are these: Homo sapiens. On the procedure:
The synergy finder codes were used to determine the synergy between drugs for 48 possible combinations. The codes were run using the R-platform and synergy was calculated and represented as the synergy landscape.
Drug Combination Synergy Assay: For combination index (CI) calculation, SW1573 and H23 incured cell lines were seeded in 96-well plate with 5000 cells per well. Three biological replicates (three 96-well plates for each drug combination) were used. […] The drugs were used in linear dilution series with dilution factor of 2. […] Further, R package called SynergyFinder (He et al., 2018) was used to find the nature of drug-drug interaction (i.e. if they work in synergy or antagonistically or non-interactively). For this purpose, the drug response matrix is supplied to the mentioned package, which then uses several models namely Highest Single Agent (Berenbaum, 1989), Loewe additivity (Loewe, 1953), Bliss independence (Bliss, 1939) and Zero Interaction Potency (Yadav et al., 2015) to quantify the degree of drug synergy. The dose response matrix was used to calculate individual CI values for IC30, IC50 and IC70 drug treatments. The output values were used to plot isobolograms using the following formula. CI=IC50 (A) pair IC50 (A)+IC50 (B) pair IC50 (B)

The test system of assay [2] is SW1573. Description: Cell proliferation assay, 2D (IncuCyte live cell imaging). Type of assay: cell-based. The conditions noted are these: SW1573. Here is the method: The cells were seeded at density of 10000 cells/well 12 hours prior to the experiment. Once the cells attached to the plate the media was removed and the drugs were added to the cells. […] Cell proliferation was observed using the IncuCyte Live Imaging System for 72 hrs.
Knockdown of ITGB4 (Cat #SR302473C) at the mRNA level in the SW1573 cells was done using siRNAs purchased from OriGene Technologies (Rockville, Md., USA). JetPRIME transfection reagent (Polyplus Transfection, Illkirch, France) was used to transfect the siRNAs according to the manufacturer's protocol. Cells were seeded in 6-well plates (200,000 cells/well) and allowed to adhere overnight. Next day, 10 nM siRNA was transfected with 4 μl jetPRIME reagent in complete growth medium for each well. Next day cells were trypsinized, counted and re-plated on the 96 well plate for cell proliferation and drug assay. […] Cell growth medium was changed the next day and expression was detected 72 h post-transfection by immunoblotting.
(§1) The cells grown in 2D cultures were treated with various concentrations of the drug, and the effect on cell proliferation was determined in real time using the live cell proliferation assay (IncuCyte, Essen Bioscience, Inc.) as described in the methods.
(§2) Cell proliferation and apoptosis assay: Cell proliferation assays were performed using cell lines stably transfected with NucLight Red Lentivirus (Essen BioScience) to accurately visualize and count the nucleus of a single cell. Cells were seeded on a 96-well plate and allowed to adhere for 24 h. Test compounds were added at indicated concentrations. Caspase-3/7 Green Apoptosis Reagent (Essen BioScience) was also added as a green fluorescent indicator of caspase3/7-mediated apoptotic activity. To monitor cell proliferation and apoptosis over time, the plate was placed in the IncuCyte S3 Live Cell Imaging System (Essen BioScience) and images were acquired every 2 hours. Data analysis was generated by the IncuCyte software using a red fluorescence mask to accurately count each cell nucleus and a green fluorescence mask to measure apoptosis over time. 3D spheroid assay 3D spheroid experiments were performed using cell lines stably transfected with NucLight Red Lentivirus (Essen BioScience) to visualize red fluorescence as an indicator of cell viability. Cells were seeded on a 96-well ultra-low attachment plate and allowed to form spheroids overnight. Drug treatment was added as indicated along with Cytotox Green Reagent (Essen BioScience), used as a green fluorescence indicator of cell death due to loss of cell membrane integrity. To monitor cell proliferation and apoptosis over time, the plate was placed in the IncuCyte S3 Live Cell Imaging System (Essen BioScience) and images were acquired every 2 hours. Data analysis was generated by the IncuCyte software using a red fluorescence mask to accurately measure intensity and area of red fluorescence, indicating spheroid viability and a green fluorescence mask, indicating cell death. Cell cycle analysis.

A further assay concerns SW1573 cells. Description: Zebrafish larvae SW1573 xenotransplant. The assay is classed as in vivo. On the procedure: The inventors microinjected SW1573 cells into the perivitelline space of 48 hour post-fertilization (hpf) zebrafish larvae.
In a further assay the test system is SW1573 NSCLC cells. The experiment in a line: Mouse SW1573 xenograft. The assay is classed as in vivo, Athymic nude nu/nu mice. Here is the method:
Mouse xenograft studies. Athymic nude nu/nu mice were obtained from Charles River, Wilmington, Mass., and were acclimated for a week before beginning the experiment. All animal experiments were carried out in accordance with a protocol approved by the Institutional Animal Care and Use Committee (IACUC #16004). […] All 40 animals were injected with 1×10^6 SW1573 cells suspensions in 100 μl of PBS, subcutaneously into one flank of each mouse. At the same time, animals were randomized into treatment groups. Treatment was started 12 days after the SW1573 NSCLC cells implantation to see palpable tumor growth. Treatments were given to mice via oral gavage twice a week for 8 weeks. Animals were examined daily for signs of tumor growth. Tumors were measured in two dimensions using calipers and body weights were recorded. Photographs of animals were taken at day 1, day 7, day 14, day 21, day 28, day 35, day 42, day 49, and day 56 after treatment. Photographs of tumors were also taken at day 56 after treatment. At the end of the study, the mice were euthanized by CO2 asphyxiation followed by cervical dislocation. The tumor weights were compared between groups using an unpaired Student's t-test. A portion of the tumor was fixed in 10% buffered formaldehyde solution and paraffin-embedded for immuno-staining or was snap-frozen in liquid nitrogen for further molecular analysis such as western blotting.

For assay [3], the system named is cisplatin-refractory KRAS mutant NSCLC cells. The experiment in a line: Sensitization of cisplatin-refractory cells. The assay is classed as cell-based. As to conditions: read-out: IC50 to sensitize cisplatin-refractory KRAS mutant NSCLC cells. On the procedure: Furthermore, treating NSCLC cell lines that express high levels of ITGB4 and PXN (H358 and H2009) were treated with carfilzomib, H358 cells carrying the KRAS G12C mutation were more sensitive than H2009 cells harboring the G12A mutation. […] Taken together, these observations indicate that treating patients with carfilzomib in addition to targeting mutant KRAS will be more efficacious than carfilzomib treatment alone.

For another assay, the system named is H23 cells. The experiment in a line: Zebrafish larvae H23 xenotransplant. The assay is classed as in vivo. The conditions noted are these: sotorasib 12 μM, adagrasib 2 μM, carfilzomib 1.6 mM as printed; Day 3.
A further assay relates to H358 spheroids. Description: 3D spheroid assay. Type of assay: cell-based. As to conditions: H358. Here is the method: (§3) The activation of apoptosis is marked with the increase in green fluorescence intensity.
(§4) To determine the sensitivities of the same cells in 3D, mKate expressing cells were used to generate spheroids. Spheroids were monitored in real time using the IncuCyte live cell imaging system (FIG. 1B).
as §2

For the next assay, the system named is H23 spheroids. Description: 3D spheroid assay. The conditions noted are these: H23. Type of assay: cell-based. Here is the method:
as §3, §4, §2

Another assay concerns SW1573 spheroids. The experiment in a line: 3D spheroid assay. Type of assay: cell-based. As to conditions: SW1573. Here is the method: as §3, §4, §2
The subject of another assay is H23. Description: Cell proliferation assay, 2D (IncuCyte live cell imaging). Type of assay: cell-based. As to conditions: H23. Here is the method:
as §1, §2

Another assay concerns H358. The description is as above. The conditions noted are these: H358. Type of assay: cell-based. Here is the method:
as §1, §2

Take `C[C@@H]1C[C@H](C)CN(S(=O)(=O)c2ccc3c(c2)C(=NO)c2cc(S(=O)(=O)N4C[C@H](C)C[C@H](C)C4)ccc2C3=NO)C1` [tegatrabetan]: the inhibition at 0.01 µM in the assay with SW1573 [1] (tegatrabetan 10 nM, read-out: inhibition of cell growth) stood at 10%.

Usually IC50 stands for the point on the concentration scale where inhibition reaches its midpoint. Consider `CC(C)C[C@H](NC(=O)[C@H](CCc1ccccc1)NC(=O)CN1CCOCC1)C(=O)N[C@@H](Cc1ccccc1)C(=O)N[C@@H](CC(C)C)C(=O)[C@@]1(C)CO1` [carfilzomib], for which the “effect on cell growth” value in the assay on SW1573 [2] (20 nM) was “slows cell growth”. The “most effective dose, drug alone (obliterates SW1573 cells)” value in the assay with SW1573 cells came out at 1.6 µM. For the same molecule, the “tumor weight compared to control group” value in the assay on SW1573 NSCLC cells (end of study (day 56)) is “significant reduction in tumor weight”. Moreover, in the assay on SW1573 NSCLC cells (sotorasib 10 mg/kg, adagrasib 10 mg/kg, carfilzomib 2 mg/kg, oral gavage twice a week, day 56), the “reduction in tumor area” value was ~56%. In addition, the IC50 in assay [3] was determined as 0.0008 µM. For the same molecule, the “reduction of tumor growth (median)” value in the assay with H23 cells is recorded as ~82%. In the assay on SW1573 [1] (carfilzomib 10 nM, 72 hours, read-out: inhibition of growth), the inhibition at 0.01 µM worked out at 60%.

Regarding `C=C(F)C(=O)N1CCN(c2nc(OC[C@@H]3CCCN3C)nc3c2CCN(c2cccc4cccc(Cl)c24)C3)C[C@@H]1CC#N` [adagrasib], the “spheroids inviable (red mean intensity, last time point)” value with H358 spheroids (0.6 μM) stood at 80%; in the assay with H23 spheroids (0.6 μM), 40%. The “better viability compared to untreated spheroids” value in the assay on SW1573 spheroids (0.6 μM) was 50%.

With `C=CC(=O)N1CCN(c2ncnc3c(F)c(-c4c(O)cccc4F)c(Cl)cc23)CC1` [ARS1620, (S)-1-(4-(6-chloro-8-fluoro-7-(2-fluoro-6-hydroxyphenyl)quinazolin-4-yl)piperazin-1-yl)prop-2-en-1-one], the inhibition at 10 µM with SW1573 [2] (Homo sapiens, 10 μM, 72 hours, read-out: inhibition of proliferation / cell growth) was 20%; with H23 (Homo sapiens, NCI-H23, 10 μM, 72 hours, read-out: inhibition of proliferation / cell growth), 80%; in the assay with SW1573 spheroids (Homo sapiens, 10 μM, read-out: inhibition of spheroid area / reduction in spheroid growth), ~25%. The IC50 in the assay on SW1573 [2] (Homo sapiens, 72 hours, Example 6) was > 10 µM; with H23 (Homo sapiens, NCI-H23, 72 hours, Example 6), 7.6 µM. Besides, the “inhibition of cell growth” value in the assay with H23 (at 1.2 (unit not given)) came out at 30%; in the assay with H358 (2.5, 5 or 10 μM), 50%. Besides, in the assay on H23 (Homo sapiens, NCI-H23, 5 μM, read-out: inhibition of cell growth), the inhibition at 5 µM came out at 50%. The inhibition at 1.2 µM with H358 (Homo sapiens, NCI-H358, 1.2 μM, 72 hours, read-out: inhibition of cell growth) stood at 40%. For the same molecule, the “reduction of spheroid mean red intensity” value in the assay on H358 spheroids (5 μM) turned out to be 80%; with H23 spheroids (5 μM) it was 50%; in the assay on SW1573 spheroids (5 μM), 40%. The “reduction in spheroid growth” value in the assay with H358 spheroids (10 μM) and in the assay on H23 spheroids (10 μM) was 70% each time.
